# Assay results published in US5364879A, “Medical uses of trioxolane and diperoxide compounds” (Cliveden Ltd., priority 1994, dated 1994).
# Where two headings read alike, the source gives them in different places.
# Tests used:
# Leishmania major = assay: Treatment of mice infected with Leishmania major; assay type: in vivo, Leishmania major (balb/c mice)
# in vivo = conditions: mouse
# [1] = set-up: species or system New Zealand White rabbits; conditions: rabbit, in vivo
# [2] = set-up: species or system New Zealand White rabbits; conditions: rabbit, in vivo; remark: listed apart in the source
# Cryptococcus = assay: MIC by agar diffusion method; assay type: cell-based, Cryptoccus spp.; conditions: N = 1
# [3] = test system: Myeloma cell line (x63 balb/c line); assay: Effect on myeloma cell line; assay type: cell-based
# N. gonorrhoea = assay: MIC by agar diffusion method; assay type: cell-based, Neisseria gonorrhoea; conditions: Neisseria
# [4] = mouse, in vivo, ip
# Shigella = assay: microbe, parasite or virus in culture; assay type: cell-based, Shigella spp.
# human spermatozoa = assay: Effect on spermatozoa; assay type: cell-based
# C. albicans = assay: MIC by agar diffusion method; assay type: cell-based; conditions: Candida albicans, N = 5
# Tri. canis = assay: microbe, parasite or virus in culture; assay type: cell-based, Trichophyton canis; conditions: Trichophyton
# Klebisella = assay: microbe, parasite or virus in culture; assay type: cell-based, Klebsiella spp.; conditions: Klebsiella
# Pseudomonas = assay: microbe, parasite or virus in culture; assay type: cell-based, Pseudomonas spp.
# Candida [5] = assay: MIC in broth; assay type: cell-based, Candida spp.; conditions: N = 2
# S. epidermidis = assay: MIC by agar diffusion method; assay type: cell-based; conditions: Staphylococcus epidermidis
# Ph. verrucose = assay: microbe, parasite or virus in culture; assay type: cell-based, Phialophora verrucose; conditions: Phialophora
# Archromobacter = assay: MIC by agar diffusion method; assay type: cell-based; conditions: Achromobacter, N = 1
# [6] = test system: microorganisms which cause common infections; assay type: cell-based
# Candida [7] = assay: MIC in agar dilution; assay type: cell-based, Candida spp.; conditions: N = 2
# EPEC/ETEC [8] = assay: MIC in broth; assay type: cell-based, Enteropathogenic/enterotoxigenic Escherichia coli; conditions: Escherichia coli, N = 5
# EPEC/ETEC [9] = assay: MIC in agar dilution; assay type: cell-based, Enteropathogenic/enterotoxigenic Escherichia coli; conditions: Escherichia coli, N = 5
# S. aureus [10] = assay: microbe, parasite or virus in culture; assay type: cell-based; conditions: Staphylococcus aureus
# Tri. violaceum = assay: microbe, parasite or virus in culture; assay type: cell-based, Trichophyton violaceurn; conditions: Trichophyton violaceum
# Salmonella = assay: microbe, parasite or virus in culture; assay type: cell-based, Salmonella spp.
# Leishmania donova = test system: Leishmania donova; set-up: species or system Leishmania donova (Balb/c mice); conditions: mouse, in vivo
# S. aureus [11] = assay: microbe, parasite or virus in culture; assay type: cell-based; conditions: Staphylococcus aureus, read-out: lowest concentration inhibiting at least one isolate
# lymphocytes = assay: Immunomodulatory activity, bone marrow examination; assay type: in vivo; conditions: Balb/c mice
# Candida [12] = assay: microbe, parasite or virus in culture; assay type: cell-based, Candida spp.
# Penicillium = assay: MIC by agar diffusion method; assay type: cell-based, Penicillium spp.; conditions: N = 1
# E. coli = assay: microbe, parasite or virus in culture; assay type: cell-based; conditions: Escherichia coli
smiles,measurement,setting,value
"O.O.O.O.O.O.O.O.O.O=C([O-])[C@@H]1[O][Sb](=[O])([O][Sb]2(=[O])[O][C@H]([C@H](O)CO)[C@H](O)[C@H](C(=O)[O-])[O]2)[O][C@H]([C@H](O)CO)[C@@H]1O.[Na+].[Na+].[Na+] (some centres unmarked) [Pentostam, reference compound]","lesions, Day 14","Leishmania major; mouse, in vivo, ip",Large lesions
same,"number dead, Day 14","Leishmania major; mouse, in vivo, ip",1
same,"palate involvement, Day 14","Leishmania major; mouse, in vivo, ip",involvement
CC1(C)OOC(CCC(C)(O)C2OCOO2)O1 (centres unmarked) [linalool trioxolane],LD50,in vivo,~3000 mg/kg
same,ocular irritation,[1],non-irritant
same,Primary Irritation Index (PII),[2],1.0
CCC1OOC(CCO)O1 (stereo not drawn) [trioxolane derivative of cis 3-hexene-1-ol],MIC,Cryptococcus,15 µg/mL
same,time within which myeloma cell line was killed,[3],≤ 48 h
same,MIC,"N. gonorrhoea; N = 49, number in parentheses, read-out: lowest concentration inhibiting at least one isolate",1.9 µg/mL
same,MIC,"N. gonorrhoea; N = 49, read-out: MIC",3.5 µg/mL
same,minimum lethal dose,[4],3 g/kg
same,tolerability in studies on LD50,[4],highly tolerated
same,MBC,Shigella,1250 µg/mL
same,time within which human spermatozoa were killed,human spermatozoa,≤ 1 min
same,MIC,C. albicans,31 µg/mL
same,MIC,Tri. canis,150 µg/mL
same,MIC,Klebisella,7 µg/mL
same,MBC,Pseudomonas,1250 µg/mL
same,MIC,Candida [5],310 µg/mL
same,MIC,S. epidermidis; read-out: lowest concentration inhibiting at least one isolate,31 µg/mL
same,MIC,"S. epidermidis; agar diffusion, N = 14, read-out: MIC",25 µg/mL
same,"lesions, Day 0","Leishmania major; IP, n = 15/group",Large lesions
same,"lesions, Day 14","Leishmania major; IP, n = 15/group",Lesions scabbed
same,"number dead, Day 14","Leishmania major; IP, n = 15/group",2
same,"number with palate involvement, Day 14","Leishmania major; IP, n = 15/group",2
same,"general condition, Day 14","Leishmania major; topical, n = 15/group",Animals healthy and
same,"lesions, Day 0","Leishmania major; topical, n = 15/group",Large lesions
same,MIC,Ph. verrucose,150 µg/mL
same,MIC,Archromobacter,60 µg/mL
same,activity compared with Geraniol trioxolane,[6],more active than Geraniol trioxolane
same,activity compared with conventional drugs,[6],more active than conventional drugs
same,"direct bioactivity, agar vs broth",[6],better in agar than in broth methods
same,effect of water on direct bioactivity,[6],significantly reduces
same,relationship with resistance and sensitivity to conventional antibiotics,[6],no relationship
same,sensitivity of all the microorganisms tested,[6],uniformly sensitive
same,MIC,Candida [7],31 µg/mL
same,MIC,EPEC/ETEC [8],620 µg/mL
same,MIC,EPEC/ETEC [9],31 µg/mL
same,MBC,S. aureus [10],1250 µg/mL
same,MIC,Tri. violaceum,150 µg/mL
same,MBC,Salmonella,2500 µg/mL
same,clearing parasites from the viscera compared with Pentostam,Leishmania donova,perform better than Pentostam
same,MIC,S. aureus [11],31 µg/mL
same,new clones of lymphocytes in bone marrow vs mice without any drug,lymphocytes,increase in new clones of lymphocytes
same,MBC,Candida [12],1250 µg/mL
same,MIC,Penicillium,310 µg/mL
same,MIC,E. coli,120 µg/mL
